According to US20240041042A1, “1-(PYRIDYL)-5-AZINYLPYRAZOLE DERIVATIVES, AND THEIR USE FOR CONTROL OF UNDESIRED PLANT GROWTH” (Bayer Aktiengesellschaft, priority 2020, published 2024):
Where two headings read alike, the source gives them in different places.

Legend:
Format in all cases: in vivo
[1] = system: Amaranthus retroflexus (AMARE); experiment: Pre-emergence herbicidal action against AMARE; settings: 320 g/ha, visual scoring after about 3 weeks vs untreated controls
Procedure, shortened: (§1)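 Seeds sown in pots and covered with soil; WP or EC formulations sprayed onto the soil surface at 600 l/ha water with 0.5% additive, at 320 g/ha or lower. Greenhouse growth for about 3 weeks, then visual scoring as % effect against untreated controls (100% = plants dead).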

Setaria viridis (SETVI) [2] = experiment: Pre-emergence herbicidal action against SETVI; settings: dosage 320 g/ha
Procedure, shortened: as §1

Oryza sativa (ORYSA) [3] = settings: pre-emergence, crop plant compatibility, in comparison to untreated controls
Procedure, shortened: (§2)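 Crop injury rated visually in percent against untreated plants roughly 3 weeks after treatment (0% no effect, 100% plants dead). Compounds, as WP or EC with 0.5% additive in 600 l/ha water, were applied to the covering soil right after sowing; greenhouse growth. Suffixes a, b, c denote different dosages.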

[4] = system: Triticum aestivum (TRZAS); settings: pre-emergence, crop plant compatibility, in comparison to untreated controls
Procedure, shortened: as §2

Zea mays (ZEAMX) [5] = settings: pre-emergence, crop plant compatibility, in comparison to untreated controls
Procedure, shortened: as §2

[6] = system: Amaranthus retroflexus (AMARE); experiment: Post-emergence herbicidal action against AMARE
Procedure, shortened: (§3)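 Rates were 320 g/ha or below, applied as aqueous WP/EC spray with 0.5% additive (600 l/ha) onto one-leaf-stage plants. About 3 weeks later in the greenhouse, damage was scored visually against untreated plants on a 0–100% scale, where 100% means plants died.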

Oryza sativa (ORYSA) [7] = settings: crop plant compatibility, effect in comparison to untreated controls
Procedure, shortened: (§4)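 Greenhouse crops in sandy loam sprayed post-emergence at the one-leaf stage, 2–3 weeks after sowing, with WP or EC formulations in water plus 0.5% additive at 600 l/ha. Damage rated visually about 3 weeks later versus untreated controls (0% = like control, 100% = dead); suffixes a–c denote different doses.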

[8] = system: Triticum aestivum (TRZAS); settings: crop plant compatibility, effect vs untreated controls
Procedure, shortened: as §4

Zea mays (ZEAMX) [9] = settings: crop plant compatibility, effect vs untreated controls
Procedure, shortened: as §4

[10] = system: Echinochloa crus-galli (ECHCG); experiment: Pre-emergence herbicidal action against ECHCG; settings: dosage 320 g/ha
Procedure, shortened: as §1

Lolium rigidum (LOLRI) [11] = experiment: Pre-emergence herbicidal action against LOLRI; settings: dosage 320 g/ha
Procedure, shortened: as §1

[12] = system: Matricaria inodora (MATIN); experiment: Pre-emergence herbicidal action against MATIN; settings: dosage 320 g/ha
Procedure, shortened: as §1

[13] = system: Pharbitis purpurea (PHBPU); experiment: Pre-emergence herbicidal action against PHBPU; settings: dosage 320 g/ha
Procedure, shortened: as §1

[14] = system: Polygonum convolvulus (POLCO); experiment: Pre-emergence herbicidal action against POLCO
Procedure, shortened: as §1

[15] = system: Verconica persica (VERPE); experiment: Pre-emergence herbicidal action against VERPE; settings: dosage 320 g/ha
Procedure, shortened: as §1

Avena fatua (AVEFA) = experiment: Post-emergence herbicidal action against AVEFA; settings: 320 g/ha, visual rating about 3 weeks after treatment
Procedure, shortened: as §3

[16] = system: Echinochloa crus-galli (ECHCG); experiment: Post-emergence herbicidal action against ECHCG; settings: dosage 320 g/ha
Procedure, shortened: as §3

Lolium rigidum (LOLRI) [17] = experiment: Post-emergence herbicidal action against LOLRI; settings: dosage 320 g/ha
Procedure, shortened: as §3

[18] = system: Pharbitis purpurea (PHBPU); experiment: Post-emergence herbicidal action against PHBPU
Procedure, shortened: as §3

Setaria viridis (SETVI) [19] = experiment: Post-emergence herbicidal action against SETVI
Procedure, shortened: as §3

[20] = system: Verconica persica (VERPE); experiment: Post-emergence herbicidal action against VERPE
Procedure, shortened: as §3

[21] = system: Digitaria sanguinalis (DIGSA); experiment: Pre-emergence herbicidal action against DIGSA; settings: dosage 320 g/ha
Procedure, shortened: as §1

[22] = system: Matricaria inodora (MATIN); experiment: Post-emergence herbicidal action against MATIN; settings: dosage 320 g/ha
Procedure, shortened: as §3

[23] = system: Polygonum convolvulus (POLCO); experiment: Post-emergence herbicidal action against POLCO; settings: dosage 320 g/ha
Procedure, shortened: as §3

Viola tricolor (VIOTR) [24] = experiment: Pre-emergence herbicidal action against VIOTR; settings: 320 g/ha, Viola tricolor
Procedure, shortened: as §1

[25] = system: Alopecurus myosuroides (ALOMY); experiment: Post-emergence herbicidal action against ALOMY; settings: 320 g/ha, visual rating about 3 weeks after treatment vs untreated controls (100% = plants have died, 0% = like control plants)
Procedure, shortened: as §3

Viola tricolor (VIOTR) [26] = experiment: Post-emergence herbicidal action against VIOTR; settings: 320 g/ha
Procedure, shortened: as §3

[27] = 320 g/ha, visual rating about 3 weeks after treatment

Compound | Pre-emergence action against AMARE in % [1] | Pre-emergence action against SETVI in % (Setaria viridis (SETVI) [2]) | Pre-emergence action against ORYSA in % (Oryza sativa (ORYSA) [3]; 80 g/ha) | Pre-emergence action against ORYSA in % (Oryza sativa (ORYSA) [3]; 320 g/ha) | Pre-emergence action against TRZAS in % ([4]; 80 g/ha) | Pre-emergence action against TRZAS in % ([4]; 320 g/ha) | Pre-emergence action against ZEAMX in % (Zea mays (ZEAMX) [5]; 80 g/ha) | Post-emergence action against AMARE in % [6, 27] | Post-emergence action against ORYSA in % (Oryza sativa (ORYSA) [7]; 80 g/ha) | Post-emergence action against ORYSA in % (Oryza sativa (ORYSA) [7]; 320 g/ha) | Post-emergence action against TRZAS in % ([8]; 80 g/ha) | Post-emergence action against ZEAMX in % (Zea mays (ZEAMX) [9]; 80 g/ha) | Post-emergence action against ZEAMX in % (Zea mays (ZEAMX) [9]; 320 g/ha) | Pre-emergence action against LOLRI in % (Lolium rigidum (LOLRI) [11]) | Pre-emergence action against MATIN in % [12] | Pre-emergence action against PHBPU in % [13] | Post-emergence action against PHBPU in % ([18]; dosage 80 g/ha) | Post-emergence action against PHBPU in % ([18]; dosage 320 g/ha) | Post-emergence action against SETVI in % (Setaria viridis (SETVI) [19]; dosage 320 g/ha) | Post-emergence action against VERPE in % ([20]; 320 g/ha, VERPE) | also measured
O=C(O)COc1nn(-c2ccnc(F)c2)c(-c2ccc(F)nc2)c1Br [III-02] | 80% | 80% | 0% | 0% | 0% | 20% | 20% | 80% | 0% | 20% | 20% | 10% | 20% | – | – | – | – | – | – | – | –
CCOC(=O)COc1nn(-c2cccc(C)n2)c(-c2ccc(F)nc2)c1Cl [Example I-352] | 90% | 90% | 20% | – | 10% | – | – | 80% | 20% | – | 10% | – | – | 80% | 90% | 80% | 90% | 90% | 80% | 80% | Pre-emergence action against ECHCG in % [10]: 90%; Pre-emergence action against POLCO in % ([14]; dosage 80 g/ha): 80%; Pre-emergence action against POLCO in % ([14]; dosage 320 g/ha): 90%; Pre-emergence action against VERPE in % [15]: 80%; Post-emergence action against AVEFA in % (Avena fatua (AVEFA)): 80%; Post-emergence action against ECHCG in % [16]: 80%; Post-emergence action against LOLRI in % (Lolium rigidum (LOLRI) [17]): 80%; Post-emergence action against VERPE in % ([20]; dosage 80 g/ha): 80%
COC(=O)[C@H](C)NC(=O)COc1nn(-c2ccnc(F)c2)c(-c2ccc(F)nc2)c1Br [III-28] | 80% | – | 0% | 10% | 0% | – | 0% | 80% | 0% | 0% | – | 0% | 0% | – | – | – | – | – | – | – | Pre-emergence action against VERPE in % [15]: 80%; Pre-emergence action against ZEAMX in % (Zea mays (ZEAMX) [5]; 320 g/ha): 10%; Post-emergence action against AMARE in % ([6]; 80 g/ha, visual rating about 3 weeks after treatment vs untreated controls (100% = plants have died, 0% = like control plants)): 80%
COC(=O)CNC(=O)COc1nn(-c2cccc(C)n2)c(-c2ccc(F)nc2)c1Br [Example I-357] | – | – | 20% | 20% | 10% | 10% | 20% | – | 0% | 10% | 10% | 0% | 10% | – | – | – | 80% | 80% | 80% | – | Post-emergence action against TRZAS in % ([8]; 320 g/ha): 10%
O=C(O)COc1nn(-c2ccccn2)c(-c2ccc(Cl)nc2)c1Cl [Example I-236] | 80% | – | – | – | 20% | – | 20% | 80% | 0% | 0% | – | 0% | – | 90% | – | – | – | 80% | – | 80% | Pre-emergence action against DIGSA in % [21]: 90%; Post-emergence action against MATIN in % [22]: 80%; Post-emergence action against POLCO in % [23]: 80%
COCCOC(=O)COc1nn(-c2cccc(C)n2)c(-c2ccc(F)nc2)c1Cl [Example I-279] | – | 90% | 0% | – | 20% | – | – | – | 10% | – | 10% | – | – | 80% | 80% | 100% | 80% | 80% | 80% | 90% | Pre-emergence action against POLCO in % ([14]; dosage 320 g/ha): 80%; Pre-emergence action against VERPE in % [15]: 80%; Post-emergence action against ECHCG in % [16]: 80%; Post-emergence action against LOLRI in % (Lolium rigidum (LOLRI) [17]): 80%; Post-emergence action against SETVI in % (Setaria viridis (SETVI) [19]; dosage 80 g/ha): 80%; Post-emergence action against VERPE in % ([20]; dosage 80 g/ha): 80%
COC(=O)CCOC(=O)COc1nn(-c2cccc(C)n2)c(-c2ccc(F)nc2)c1Br [Example I-278] | 80% | 100% | 0% | – | 0% | – | 0% | – | 0% | 10% | 0% | 20% | – | 80% | 80% | 80% | 80% | 80% | 90% | 90% | Post-emergence action against ECHCG in % [16]: 80%; Post-emergence action against LOLRI in % (Lolium rigidum (LOLRI) [17]): 80%; Post-emergence action against VERPE in % ([20]; dosage 80 g/ha): 80%
CCOC(=O)COc1nn(-c2ccncc2)c(-c2ccc(F)nc2)c1Br [III-08] | 80% | – | 0% | 0% | 0% | 0% | – | 80% | 0% | 0% | 0% | – | – | – | – | – | – | – | – | – | Pre-emergence action against VIOTR in % (Viola tricolor (VIOTR) [24]): 90%; Post-emergence action against ALOMY in % [25]: 80%; Post-emergence action against POLCO in % [23]: 80%; Post-emergence action against VIOTR in % (Viola tricolor (VIOTR) [26]): 80%
